As a reminder, the Papp is the rate of passage across a membrane or cell layer, normalised by area and donor concentration. A low value points to slow passage.

A short description of the data set: in vitro. The settings on record: human.

Structures are written as SMILES.

`CN1CCCC1c1cccnc1` (stereo not shown) [HBSS with nicotine, nicotine] registered an apparent permeability coefficient (Papp) of 8.5 ×10⁻⁶ cm/s.

The values above are taken from patent US20160015703A1, “NANO- MIC[…] FOR […] OF AN ACTIVE INGREDIENT” (Danmarks Tekniske Universitet, priority 2013, published 2016).
